This is an account of results in patent EP4759814A1, “TRICYCLIC COMPOUND AND USE THEREOF AS MAT2A INHIBITOR” (SK Biopharmaceuticals Co., Ltd., priority 2023, dated 2025).

A value given as a limit tells only on which side of the number the result lay.

The conditions of data set [1]: Phase 1 clinical trials; cited from earlier work.
The target in another data set is T1, MAT2A (Homo sapiens, UniProt P31153).
T1 construct: purchased BPS Bioscience (USA) 71401
As to the kind of experiment: MAT2A inhibitory activity, colorimetric phosphate detection (PiColorLock) enzyme assay. The class given is biochemical. The conditions noted are these: Test Condition 1 or 2 (not stated which per compound); absorbance at 630 nm. The method in brief:
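Compound preincubated 30 min at room temperature with enzyme, then reacted 1 h with ATP and Met; phosphate read colorimetrically at 630 nm. Condition 1: top 50 µM, 12 ng/µL enzyme, 100 µM ATP, 80 µM Met. Condition 2: top 1 µM, 4 ng/µL enzyme, 300 µM ATP, 150 µM Met. Tris pH 8.0 buffer; IC50 by 4-parameter fit.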

The test system of data set [2] is HCT116 (MTAP del) cell line. As to the kind of experiment: Cell proliferation inhibition in MTAP-deficient cancer cells, WST-1 assay. The data set is classed as cell-based. Conditions: Homo sapiens, HCT-116, 120 hours of drug treatment, maximum concentration 10 µM, read-out: HCT116 MTAP^-/- (IC50, cell proliferation inhibited by 50%). The method in brief: (§1)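 HCT116 MTAP-deleted and isogenic MTAP wild-type cells (1,000 cells/well, 10% FBS RPMI1640) attached 24 h, then treated with 4-fold dilutions from 10 µM for 120 hours. WST-1 added 2 hours, absorbance at 450 nm, normalized to DMSO control as 100%; IC50 from 4-parameter dose-response fit.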

For data set [3], the system named is HCT116 (MTAP WT) cell line. The experiment in a line: Cell proliferation inhibition in wild-type control cells, WST-1 assay. The data set is classed as cell-based. Conditions: Homo sapiens, HCT-116, 120 hours of drug treatment, maximum concentration 10 µM, read-out: HCT116 WT (IC50, cell proliferation inhibited by 50%). An outline of the steps:
as §1

T1 sequence (P31153 whole entry): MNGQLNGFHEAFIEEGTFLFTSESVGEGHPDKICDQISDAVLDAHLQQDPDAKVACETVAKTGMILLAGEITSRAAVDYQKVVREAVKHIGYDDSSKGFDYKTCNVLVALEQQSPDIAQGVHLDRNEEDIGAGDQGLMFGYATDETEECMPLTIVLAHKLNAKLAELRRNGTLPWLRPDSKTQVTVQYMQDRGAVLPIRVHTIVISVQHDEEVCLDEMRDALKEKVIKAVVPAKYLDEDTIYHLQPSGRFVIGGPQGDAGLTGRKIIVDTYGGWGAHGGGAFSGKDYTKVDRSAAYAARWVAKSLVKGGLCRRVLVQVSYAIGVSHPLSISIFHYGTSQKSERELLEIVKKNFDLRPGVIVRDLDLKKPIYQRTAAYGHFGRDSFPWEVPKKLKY

In the case of `COc1ccc(-c2c(Nc3ccccn3)[nH]c3c(C4=CCCCC4)c(-c4ccccc4)nn3c2=O)cc1` [AG-270], the hepatotoxicity entry in data set [1] is recorded as “hepatotoxicity associated with inhibition of UGT1A1”.

In the case of `CCc1ccccc1-n1c(=O)c2nccn2c2ccc(Cl)cc21` [Example 3, 7-chloro-5-(2-ethylphenyl)imidazo[1,2-a]quinoxalin-4(5H)-one], the IC50 is 100 to 1000 nM on MAT2A, 100 to 1000 nM in data set [2] and over 10000 nM in data set [3].

Consider `Cc1cccc(-n2c(=O)c3nccn3c3ccc(Cl)cc32)c1` [Example 39, 7-chloro-5-(m-tolyl)imidazo[1,2-a]quinoxalin-4(5H)-one], for which the IC50 on MAT2A is 100 to 1000 nM; in data set [2] it was 100 to 1000 nM; in data set [3], over 10000 nM.

As to `Cc1ncccc1-n1c(=O)c2ncc(C)n2c2cc(Cl)c(C(F)(F)F)cc21` [Example 99, 8-chloro-1-methyl-5-(2-methylpyridin-3-yl)-7-(trifluoromethyl)imidazo[1,2-a]quinoxalin-4(5H)-one], the IC50 against MAT2A was 1 to 100 nM; in data set [2] it was 1 to 100 nM; in data set [3], over 10000 nM.

Consider `O=c1c2nccn2c2cc(Cl)c(Br)cc2n1-c1cccnc1C1CC1` [Example 87, 7-bromo-8-chloro-5-(2-cyclopropylpyridin-3-yl)imidazo[1,2-a]quinoxalin-4(5H)-one], for which the IC50 against MAT2A is 1 to 100 nM; in data set [2] it was 1 to 100 nM; in data set [3], over 10000 nM.

As for `CCOc1ccc2c(c1)n(-c1ccccc1C)c(=O)c1nccn12` [Example 30, 7-ethoxy-5-(o-tolyl)imidazo[1,2-a]quinoxalin-4(5H)-one], the IC50 (against MAT2A; in data set [2]; in data set [3]) was over 10000 nM in each case.

Regarding `Cc1ncccc1-n1c(=O)c2nccn2c2cc(Cl)c(Br)cc21` [Example 79, 7-bromo-8-chloro-5-(2-methylpyridin-3-yl)imidazo[1,2-a]quinoxalin-4(5H)-one], the IC50 on MAT2A fell in the range of 1 to 100 nM; in data set [2], 1 to 100 nM; in data set [3], 1000 to 10000 nM.

On to `Cc1ccccc1-n1c(=O)c2nccn2c2ccc(C(F)(F)F)cc21` [Example 26, 5-(o-tolyl)-7-(trifluoromethyl)imidazo[1,2-a]quinoxalin-4(5H)-one], for which the IC50 against MAT2A is 1 to 100 nM; in data set [2], 1 to 100 nM; in data set [3], over 10000 nM.

`Cc1c(F)cccc1-n1c(=O)c2nccn2c2ccc(Cl)cc21` [Example 6, 7-chloro-5-(3-fluoro-2-methylphenyl)imidazo[1,2-a]quinoxalin-4(5H)-one]: the IC50 on MAT2A was in the range of 100 to 1000 nM; in data set [2], 100 to 1000 nM; in data set [3] it was 1000 to 10000 nM.

Take `COc1ccccc1-n1c(=O)c2nccn2c2ccc(Cl)cc21` [Example 37, 7-chloro-5-(2-methoxyphenyl)imidazo[1,2-a]quinoxalin-4(5H)-one]: the IC50 is 100 to 1000 nM against MAT2A, 100 to 1000 nM in data set [2] and over 10000 nM in data set [3].

On to `CC(=O)c1nc2c(=O)n(-c3cccnc3C)c3cc(C(F)(F)F)ccc3n2c1O` [Example 60, 2-acetyl-1-hydroxy-5-(2-methylpyridin-3-yl)-7-(trifluoromethyl)imidazo[1,2-a]quinoxalin-4(5H)-one], for which the results for the IC50 (against MAT2A; in data set [2]; in data set [3]) were 100 to 1000 nM, over 10000 nM and over 10000 nM, respectively.

In the case of `COc1cc2c(cc1Br)n(-c1cccnc1C)c(=O)c1nccn12` [Example 75, 7-bromo-8-methoxy-5-(2-methylpyridin-3-yl)imidazo[1,2-a]quinoxalin-4(5H)-one], the IC50 on MAT2A is 100 to 1000 nM; in data set [2], 100 to 1000 nM; in data set [3], over 10000 nM.

For `Cc1ccccc1-n1c(=O)c2nccn2c2c(F)cc(Cl)cc21` [Example 71, 7-chloro-9-fluoro-5-(o-tolyl)imidazo[1,2-a]quinoxalin-4(5H)-one], the results for the IC50 (against MAT2A; in data set [2]; in data set [3]) were 1000 to 10000 nM, over 10000 nM and over 10000 nM, respectively.

Take `Cc1cn2c(n1)c(=O)n(-c1cccnc1C)c1cc(C(F)(F)F)ccc12` [Example 55, 2-methyl-5-(2-methylpyridin-3-yl)-7-(trifluoromethyl)imidazo[1,2-a]quinoxalin-4(5H)-one]: the IC50 was in the range of 1 to 100 nM on MAT2A, 1 to 100 nM in data set [2] and 1000 to 10000 nM in data set [3].

Regarding `Cc1ccccc1-n1c(=O)c2nccn2c2ccc(Cl)cc21` [Example 1, 7-chloro-5-(o-tolyl)imidazo[1,2-a]quinoxalin-4(5H)-one], the IC50 at MAT2A was 100 to 1000 nM; in data set [2], 100 to 1000 nM; in data set [3], over 10000 nM.

`Cc1ncccc1-n1c(=O)c2nc(Br)c(C)n2c2cc(Cl)c(Br)cc21` [Example 92, 2,7-dibromo-8-chloro-1-methyl-5-(2-methylpyridin-3-yl)imidazo[1,2-a]quinoxalin-4(5H)-one]: the IC50 is 100 to 1000 nM against MAT2A, over 10000 nM in data set [2] and over 10000 nM in data set [3].

For the compound `CC(C)c1ccccc1-n1c(=O)c2nccn2c2ccc(Cl)cc21` [Example 5, 7-chloro-5-(2-isopropylphenyl)imidazo[1,2-a]quinoxalin-4(5H)-one], the IC50 against MAT2A is 100 to 1000 nM; in data set [2] it was 1000 to 10000 nM; in data set [3], over 10000 nM.

Regarding `Cc1cc(F)ccc1-n1c(=O)c2nccn2c2ccc(Cl)cc21` [Example 8, 7-chloro-5-(4-fluoro-2-methylphenyl)imidazo[1,2-a]quinoxalin-4(5H)-one], the results for the IC50 (against MAT2A; in data set [2]; in data set [3]) were 1000 to 10000 nM, over 10000 nM and over 10000 nM, respectively.

`Cc1ncccc1-n1c(=O)c2nccn2c2cc(Cl)c(C(F)(F)F)cc21` [Example 96, 8-chloro-5-(2-methylpyridin-3-yl)-7-(trifluoromethyl)imidazo[1,2-a]quinoxalin4(5H)-one]: the IC50 against MAT2A is 1 to 100 nM; in data set [2], 1 to 100 nM; in data set [3], over 10000 nM.

With `Cc1cc2c(cc1C(F)(F)F)n(-c1cccnc1C)c(=O)c1nccn12` [Example 93, 8-methyl-5-(2-methylpyridin-3-yl)-7-(trifluoromethyl)imidazo[1,2-a]quinoxalin4(5H)-one], the IC50 is 1 to 100 nM against MAT2A, 1 to 100 nM in data set [2] and over 10000 nM in data set [3].

For `Cc1ccccc1-n1c(=O)c2nccn2c2ccc(C3CC3)cc21` [Example 16, 7-cyclopropyl-5-(o-tolyl)imidazo[1,2-a]quinoxalin-4(5H)-one], the IC50 at MAT2A was 100 to 1000 nM; in data set [2] it was 100 to 1000 nM; in data set [3], over 10000 nM.

Regarding `CC(=O)c1ccc2c(c1)n(-c1ccccc1C)c(=O)c1nccn12` [Example 24, 7-acetyl-5-(o-tolyl)imidazo[1,2-a]quinoxalin-4(5H)-one], the IC50 was 100 to 1000 nM against MAT2A, over 10000 nM in data set [2] and over 10000 nM in data set [3].

Take `Cc1ccccc1-n1c(=O)c2nccn2c2ccc(Br)cc21` [Example 32, 7-bromo-5-(o-tolyl)imidazo[1,2-a]quinoxalin-4(5H)-one]: the IC50 is 1 to 100 nM on MAT2A, 1 to 100 nM in data set [2] and 1000 to 10000 nM in data set [3].
